ChEMBL document CHEMBL1146010, “Synthesis and in vitro antimycobacterial activity of N1-nicotinoyl-3-(4'-hydroxy-3'-methyl phenyl)-5-[(sub)phenyl]-2-pyrazolines” (2006)
≈ marks a conversion by molar mass, not a printed value.

How the values were obtained:
[1] = tested on: Mycobacterium tuberculosis; assay: Antimycobacterial activity against Mycobacterium tuberculosis H37Rv by agar dilution method; assay type: functional
Vero = assay: Cytotoxicity against Vero cell line upto 62.5 ug/ml after 72 hrs by MTT assay; assay type: functional, cell-based; settings: Chlorocebus sabaeus

Compound	MIC [1]	Activity (Vero)
Cc1cc(C2=NN(C(=O)c3ccncc3)C(c3cccc([N+](=O)[O-])c3)C2)ccc1O (stereo not given)	15.5 µM (≈ 6.25 µg/mL)	–
NNC(=O)c1ccncc1 [ISONIAZID]	0.73 µM (≈ 0.1 µg/mL)	–
COc1ccc(C2CC(c3ccc(O)c(C)c3)=NN2C(=O)c2ccncc2)cc1 (stereo not given)	16.1 µM (≈ 6.25 µg/mL)	–
Cc1cc(C2=NN(C(=O)c3ccncc3)C(c3ccc(F)cc3)C2)ccc1O (stereo not given)	0.27 µM (≈ 0.101 µg/mL)	Not toxic
COc1ccc(C2CC(c3ccc(O)c(C)c3)=NN2C(=O)c2ccncc2)cc1OC (stereo not given)	1.87 µM (≈ 0.781 µg/mL)	–
Cc1cc(C2=NN(C(=O)c3ccncc3)C(c3ccccc3Cl)C2)ccc1O (stereo not given)	0.26 µM (≈ 0.102 µg/mL)	Not toxic
Cc1cc(C2=NN(C(=O)c3ccncc3)C(c3ccc(N(C)C)cc3)C2)ccc1O (stereo not given)	1.95 µM (≈ 0.781 µg/mL)	–
Cc1cc(C2=NN(C(=O)c3ccncc3)C(c3ccccc3)C2)ccc1O (stereo not given)	8.73 µM (≈ 3.12 µg/mL)	–
Cc1cc(C2=NN(C(=O)c3ccncc3)C(c3ccco3)C2)ccc1O (stereo not given)	0.58 µM (≈ 0.201 µg/mL)	–
Cc1cc(C2=NN(C(=O)c3ccncc3)C(c3ccc(Cl)cc3)C2)ccc1O (stereo not given)	1.99 µM (≈ 0.78 µg/mL)	–
Cc1cc(C2=NN(C(=O)c3ccncc3)C(c3c(Cl)cccc3Cl)C2)ccc1O (stereo not given)	0.47 µM (≈ 0.2 µg/mL)	Not toxic
COc1ccc(C2CC(c3ccc(O)c(C)c3)=NN2C(=O)c2ccncc2)c(OC)c1OC (stereo not given)	3.93 µM (≈ 1.76 µg/mL)	–
